Laboratory results as given in ChEMBL document CHEMBL1126121, “Non-prostanoid thromboxane A2 receptor antagonists with a dibenzoxepin ring system. 1” (J Med Chem, 1992).
Where “and” joins values, the source holds several entries; their conditions need not be identical. Equal entries are not always repeated.

Key:
Cavia porcellus [1] = test: Compound was tested ex vivo for it's inhibition of U-46619 induced platelet aggregation in the guinea pig after 2 hr of administration at dose 10 mg/kg; type: functional
Cavia porcellus [2] = test: Compound was tested ex vivo for it's inhibition of U-46619 induced platelet aggregation in the guinea pig after 4 hr of administration at dose 10 mg/kg; type: functional
Cavia porcellus [3] = test: Compound was tested ex vivo for it''s inhibition of U-46619 induced platelet aggregation in the guinea pig ex vivo after 7 hr of administration at dose 10 mg/kg; type: functional
Cavia porcellus [4] = test: Inhibitory effect of the compounds on U-46619-induced platelet aggregation ex vivo in guinea pig at the dose of 10 mg/kg 4 hr after oral administration; type: functional
Cavia porcellus [5] = test: Compound was tested ex vivo for it''s inhibition of U-46619 induced platelet aggregation in the guinea pig after 2 hr of administration at dose 10 mg/kg; type: functional
Cavia porcellus [6] = test: Compound was tested ex vivo for it''s inhibition of U-46619 induced platelet aggregation in the guinea pig after 4 hr of administration at dose 10 mg/kg; type: functional
Cavia porcellus [7] = test: Inhibitory effect of the compounds on U-46619-induced platelet aggregation ex vivo in guinea pig at the dose of 10 mg/kg 2 hr after oral administration; type: functional
[8] = target: T1, Thromboxane A2 receptor (Homo sapiens) (UniProt P21731); test: Binding affinity for thromboxane A2 receptor by measuring ability to displace [3H]U-46619 from guinea pig platelets at 1 uM; settings: Cavia porcellus, target entry is the homologue from another species
T1 sequence (whole entry): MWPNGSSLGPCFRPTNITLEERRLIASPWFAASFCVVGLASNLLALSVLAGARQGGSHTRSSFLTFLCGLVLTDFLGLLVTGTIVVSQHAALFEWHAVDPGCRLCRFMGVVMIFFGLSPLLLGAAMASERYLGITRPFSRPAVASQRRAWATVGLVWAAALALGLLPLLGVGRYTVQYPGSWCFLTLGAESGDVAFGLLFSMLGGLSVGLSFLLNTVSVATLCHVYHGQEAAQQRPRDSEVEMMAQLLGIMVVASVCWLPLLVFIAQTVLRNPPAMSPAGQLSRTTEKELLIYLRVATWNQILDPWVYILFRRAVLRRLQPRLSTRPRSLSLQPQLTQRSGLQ

[9] = target: T1, Thromboxane A2 receptor (Homo sapiens); test: Binding affinity for thromboxane A2 receptor by measuring its ability to displace [3H]U-46619 from guinea pig platelets at 0.1 uM; settings: Cavia porcellus, target entry is the homologue from another species
[10] = target: T1, Thromboxane A2 receptor (Homo sapiens); test: Inhibitory effect against binding thromboxane A2 receptor on guinea pig platelets using [3H]U-46619 as radioligand at 1 uM concentration; settings: Cavia porcellus, target entry is the homologue from another species
[11] = target: T2, Thromboxane-A synthase (Homo sapiens) (UniProt P24557); test: Inhibitory activity against thromboxane A2 synthase obtained from bovine platelet microsomes at 10 uM; settings: Bos taurus, target entry is the homologue from another species
T2 sequence (whole entry): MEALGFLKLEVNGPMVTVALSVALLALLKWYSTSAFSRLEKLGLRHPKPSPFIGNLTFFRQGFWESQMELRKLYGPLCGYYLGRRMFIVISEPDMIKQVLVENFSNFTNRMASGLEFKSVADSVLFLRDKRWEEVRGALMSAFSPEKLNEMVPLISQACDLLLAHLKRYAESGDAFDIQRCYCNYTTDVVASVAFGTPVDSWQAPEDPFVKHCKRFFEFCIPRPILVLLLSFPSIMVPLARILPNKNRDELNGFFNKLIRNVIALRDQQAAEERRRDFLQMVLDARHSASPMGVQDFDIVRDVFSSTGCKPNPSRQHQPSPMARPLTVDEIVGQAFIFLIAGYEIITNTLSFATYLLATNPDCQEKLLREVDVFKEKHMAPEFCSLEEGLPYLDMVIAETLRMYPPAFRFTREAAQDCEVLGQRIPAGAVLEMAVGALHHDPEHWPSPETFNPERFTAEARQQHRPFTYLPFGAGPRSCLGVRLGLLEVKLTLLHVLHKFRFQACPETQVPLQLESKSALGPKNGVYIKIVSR

[12] = system: Thromboxane-A synthase (Bos taurus); test: Inhibitory effect against thromboxane A2 synthase from bovine platelets at 10 uM concentration
Cavia porcellus [13] = test: Inhibitory effect of the compounds on U-46619-induced platelet aggregation ex vivo in guinea pig at the dose of 10 mg/kg 7 hr oral after administration; type: functional
Cavia porcellus [14] = test: Compound was tested ex vivo for it''s inhibition of U-46619 induced platelet aggregation in the guinea pig after 7 hr of administration at dose 10 mg/kg; type: functional
[15] = target: T1, Thromboxane A2 receptor (Homo sapiens); test: Compound was tested for its binding affinity at TXA2 receptor by measuring its ability to displace [3H]U-46619 from guinea pig platelets at 1 uM; settings: Cavia porcellus, target entry is the homologue from another species
Cavia porcellus [16] = test: Inhibitory effect of the compounds on U-46619-induced platelet aggregation ex vivo in guinea pig at the dose of 100 mg/kg 2 hr after oral administration; type: functional
Cavia porcellus [17] = test: Inhibitory effect of the compounds on U-46619-induced platelet aggregation ex vivo in guinea pig at the dose of 100 mg/kg 4 hr after oral administration; type: functional
Cavia porcellus [18] = test: Inhibitory effect of the compounds on U-46619-induced platelet aggregation ex vivo in guinea pig at the dose of 30 mg/kg 2 hr after oral administration; type: functional
Cavia porcellus [19] = test: Compound was tested ex vivo for it's inhibition of U-46619 induced platelet aggregation in the guinea pig after 2 hr of administration at dose 100 mg/kg; type: functional
Cavia porcellus [20] = test: Compound was tested ex vivo for it's inhibition of U-46619 induced platelet aggregation in the guinea pig after 2 hr of administration at dose 30 mg/kg; type: functional
Cavia porcellus [21] = test: Compound was tested ex vivo for it's inhibition of U-46619 induced platelet aggregation in the guinea pig after 4 hr of administration at dose 100 mg/kg; type: functional
Cavia porcellus [22] = test: Compound was tested ex vivo for it's inhibition of U-46619 induced platelet aggregation in the guinea pig after 4 hr of administration at dose 30 mg/kg; type: functional
[23] = target: T1, Thromboxane A2 receptor (Homo sapiens); test: Compound was tested for its binding affinity at Thromboxane A2 receptor by measuring its ability to displace [3H]-U-46,619 from guinea pig platelets at 1 uM; settings: Cavia porcellus, target entry is the homologue from another species
[24] = target: T1, Thromboxane A2 receptor (Homo sapiens); test: Compound was tested for its binding affinity at Thromboxane A2 receptor by measuring its ability to displace [3H]U-46619 from guinea pig platelets; settings: Cavia porcellus; target entry is the homologue from another species; concentration not given here

Structure (SMILES) | Aggregation (Cavia porcellus [1]) | Aggregation (Cavia porcellus [2]) | Platelet aggregation (Cavia porcellus [4]) | Platelet aggregation (Cavia porcellus [7]) | inhibition [8] | inhibition [9] | inhibition [10] | inhibition [11] | inhibition [12] | also measured
O=C(O)c1ccc2c(c1)C(SCCNS(=O)(=O)/C=C/c1ccccc1)c1ccccc1CO2 (racemic) [listing 1 of 2 here] | 0% | 2.3% |  |  |  |  |  |  |  | Aggregation (Cavia porcellus [3]): 10.7%
O=C(NCCSC1c2ccccc2COc2ccc(C(=O)O)cc21)OCc1ccccc1 (stereo unspecified) |  |  | 57.3% | 8.7% | 96% | 79% | 96% | 56% | 56% | Aggregation (Cavia porcellus [5]): 8.7%; Aggregation (Cavia porcellus [6]): 57.3%
O=C(O)c1ccc2c(c1)C(SCCNS(=O)(=O)c1ccccc1)c1ccccc1CO2 (stereo unspecified) | 11.8% | 4.5% | 4.5% | 11.8% | 92% | 72% | 92% and 84% |  |  | Platelet aggregation (Cavia porcellus [13]): 12.3%; Aggregation (Cavia porcellus [14]): 12.3%
O=C(O)c1ccc2c(c1)C(SCCNS(=O)(=O)c1ccc3ccccc3c1)c1ccccc1CO2 (stereo unspecified) |  |  |  |  |  | 77% | 95% | 38% | 38% | pInhibition [15]: 95%
O=C(O)COc1ccc(CCNS(=O)(=O)c2ccccc2)cc1 [SULOTROBAN] |  |  | 87% |  |  |  | 31% |  |  | Platelet aggregation (Cavia porcellus [16]): 12.7%; Platelet aggregation (Cavia porcellus [17]): 57%; Platelet aggregation (Cavia porcellus [18]): 28%; Aggregation (Cavia porcellus [19]): 12.7%; Aggregation (Cavia porcellus [20]): 28%; Aggregation (Cavia porcellus [21]): 57%; Aggregation (Cavia porcellus [22]): 87%; inhibition [23]: 31%; inhibition [24]: -5%
O=C(O)c1ccc2c(c1)C(SCCNS(=O)(=O)c1cccs1)c1ccccc1CO2 (stereo unspecified) | 14.3% | 2.1% | 2.1% | 14.3% | 99% | 84% | 99% | 33% | 33% | Platelet aggregation (Cavia porcellus [13]): 12.3%; Aggregation (Cavia porcellus [3]): 12.3%
O=C(O)c1ccc2c(c1)C(SCCNS(=O)(=O)/C=C/c1ccccc1)c1ccccc1CO2 (racemic) [listing 2 of 2 here] |  |  |  |  |  |  | 97% |  |  | inhibition [23]: 97%; inhibition [24]: 92%
